Reference: EP4631938A1, “NITROGEN-CONTAINING HETEROCYCLE WITH SEROTONIN RECEPTOR-BINDING ACTIVITY AND CARBOCYCLIC DERIVATIVE” (Shionogi & Co., Ltd, priority 2022, dated 2024)

Tests used:
[1] = molecular target: T1, human recombinant 5-HT2A receptor (Homo sapiens, UniProt P28223); assay: Test Example 1-2: 5-HT2A receptor binding inhibition test ([3H]-Ketanserin; non-specific ligand Ketanserin); conditions: [3H]-Ketanserin; non-specific binding with 500 µmol/L Ketanserin; room temperature (25°C), 1.5 hours; read-out: h 5-HT2A Ki
T1 construct: expressed in transfected cells; host or cells: Jump-In HEK cells (membrane preparation)
In short: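 Membranes expressing the receptor were incubated with [3H]-ketanserin and compound for 1.5 h at 25 °C, then filtered onto plates presoaked in 50 mmol/L Tris-HCl pH 7.4 and scintillation-counted. Non-specific binding was defined with 500 µmol/L unlabeled ketanserin. Ki was taken from dose-response curves, with Kd set for each membrane lot by Scatchard analysis.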

[2] = molecular target: T2, human recombinant 5-HT2C receptor (Homo sapiens, UniProt P28335); assay: Test Example 2: 5-HT2C receptor binding inhibition test ([3H]-Mesulergine; non-specific ligand Serotonin HCl); conditions: human serotonin 5-HT2C receptor binding activity
T2 construct: expressed in transfected cells; host or cells: Jump-In HEK cells (membrane preparation)
T2 sequence (P28335 33-458): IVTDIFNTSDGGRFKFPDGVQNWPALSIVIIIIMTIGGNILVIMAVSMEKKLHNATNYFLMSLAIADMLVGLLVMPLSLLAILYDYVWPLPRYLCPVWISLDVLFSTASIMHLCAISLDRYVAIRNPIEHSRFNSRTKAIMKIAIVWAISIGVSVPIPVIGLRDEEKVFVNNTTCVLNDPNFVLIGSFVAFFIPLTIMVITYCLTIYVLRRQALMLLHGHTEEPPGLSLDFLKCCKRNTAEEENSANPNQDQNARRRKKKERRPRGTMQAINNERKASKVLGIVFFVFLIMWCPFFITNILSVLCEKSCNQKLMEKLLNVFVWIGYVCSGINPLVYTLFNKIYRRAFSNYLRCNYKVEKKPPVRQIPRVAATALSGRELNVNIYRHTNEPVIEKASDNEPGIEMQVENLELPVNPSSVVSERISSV
In short: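 Filtration binding to membranes bearing human 5-HT2C with [3H]-mesulergine, 2 h at 37°C; non-specific binding defined with 500 µmol/L serotonin HCl, total binding with vehicle. Inhibition rate computed from cpm; Ki derived from dose-response curve, with ligand Kd from Scatchard analysis of saturation binding.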

T1 sequence (P28223 whole entry): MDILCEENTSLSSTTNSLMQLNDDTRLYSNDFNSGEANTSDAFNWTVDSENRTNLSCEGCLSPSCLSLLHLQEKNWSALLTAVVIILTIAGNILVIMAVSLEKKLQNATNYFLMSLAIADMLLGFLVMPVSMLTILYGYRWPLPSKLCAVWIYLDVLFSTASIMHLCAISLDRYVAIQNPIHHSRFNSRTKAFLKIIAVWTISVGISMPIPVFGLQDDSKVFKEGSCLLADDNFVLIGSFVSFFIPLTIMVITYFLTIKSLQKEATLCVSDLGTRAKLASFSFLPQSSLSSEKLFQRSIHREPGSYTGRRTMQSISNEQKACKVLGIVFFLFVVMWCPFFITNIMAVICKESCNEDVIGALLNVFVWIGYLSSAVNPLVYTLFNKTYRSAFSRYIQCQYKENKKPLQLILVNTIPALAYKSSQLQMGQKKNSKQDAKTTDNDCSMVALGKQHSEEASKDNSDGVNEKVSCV

For `COCc1nc(C)c(-c2cc(Nc3ncc(-c4ccnc(C(F)(F)F)c4)cc3Cl)ncc2OCCO)c(C)n1` [Compound I-246], the Ki [1] was 2.7 nM and the Ki [2] was 5.25 nM.
`COCc1nc(C)c(-c2cc(Nc3ccc(OCc4ccccc4)cn3)ncc2OCCO)c(C)n1` [Compound I-324] was tested, and the Ki [1] was 0.421 nM and the Ki [2] was 8.52 nM.
With `COc1cnc(Nc2cc(-c3c(Cl)cnn3C)c(OCCO)cc2F)nc1` [Compound I-169] the Ki [1] was 0.738 nM and the Ki [2] was 9.97 nM.
`COCc1nc(C)c(-c2cc(Nc3ncc(OCC(F)(F)C(F)(F)F)cc3Cl)ncc2OCCO)c(C)n1` [Compound I-233] showed a Ki [1] of 4.42 nM and a Ki [2] of 1.76 nM.
`Cn1ncc(Cl)c1-c1cc(Nc2ncc(OC(F)(F)F)cc2F)ncc1OCCO` [Compound I-305] showed a Ki [1] of 0.188 nM and a Ki [2] of 0.585 nM.
Work on `COCc1nc(C)c(-c2cc(Nc3ccc(-c4ccc(Cl)cc4)cn3)ncc2OCCO)c(C)n1` [Compound I-273] yielded a Ki [1] of 0.309 nM and a Ki [2] of 0.395 nM.
For `Cc1nc(C)c(-c2cc(Nc3ccc(Oc4ccc(F)cc4)cn3)ncc2OCCO)c(C)n1` [Compound I-308], the Ki [1] was 0.575 nM and the Ki [2] was 9.45 nM.
`COCc1nc(C)c(-c2cc(Nc3ncc(C4CC4(F)F)cc3Cl)ncc2OCCO)c(C)n1` (racemic) [Compound I-194] showed a Ki [1] of 8.31 nM and a Ki [2] of 6.01 nM.
`CCc1nc(C)c(-c2cc(Nc3ncc(C(F)(F)F)cc3Cl)ncc2OCCO)c(C)n1` [Compound I-221] was tested, and the Ki [1] was 0.996 nM and the Ki [2] was 2.23 nM.
`CCc1ncccc1-c1cc(Nc2ncc(C(F)(F)F)cc2F)ncc1OCCO` [Compound I-367] showed a Ki [1] of 1.97 nM and a Ki [2] of 64.9 nM.
`Cn1ncc(Br)c1-c1cc(Nc2ccc(OC(C)(F)F)cn2)ncc1OCCO` [Compound I-301] was tested, and the Ki [1] was 0.189 nM and the Ki [2] was 1.38 nM.
Work on `COCc1nc(C)c(-c2cc(Nc3ncc(-c4cccc(C(F)F)c4)cc3Cl)ncc2OCCO)c(C)n1` [Compound I-262] yielded a Ki [1] of 0.558 nM and a Ki [2] of 0.541 nM.
For `Cn1ncc(C#N)c1-c1cc(Nc2ccc(-c3ccc(Cl)cc3)cn2)ncc1OCCO` [Compound I-189], the Ki [1] was 0.217 nM and the Ki [2] was 0.663 nM.
`C[C@H](CO)Oc1cnc(Nc2ncc(C(F)(F)F)cc2F)cc1-c1cccc2c1CNC2=O` [Compound I-362] was tested, and the Ki [1] was 0.924 nM and the Ki [2] was 25.2 nM.
Molecule `Cc1cc(OC(F)(F)F)cnc1Nc1cc(-c2c(Br)cnn2C)c(OCCO)cn1` [Compound I-179] has a Ki [1] of 0.278 nM and a Ki [2] of 0.296 nM.
Molecule `Cc1nc(C)c(-c2nc(Nc3ccc(C(F)(F)F)c(C)n3)c(F)cc2OCCO)c(C)n1` [Compound I-384] has a Ki [1] of 2.87 nM and a Ki [2] of 4.58 nM.
For `COCc1nc(C)c(-c2nc(Nc3ccc(C(F)(F)F)cn3)c(F)cc2OCCO)c(C)n1` [Compound I-334], the Ki [1] was 3.49 nM and the Ki [2] was 9.69 nM.
Work on `Cn1ncc(Br)c1-c1cc(Nc2ccc(C(F)(F)F)cn2)c(Cl)cc1OCCO` [Compound I-400] yielded a Ki [1] of 0.338 nM and a Ki [2] of 1.38 nM.
With `Cc1nc(C)c(-c2cc(Nc3ncc(C(F)(F)F)cc3F)ncc2O[C@H](C)CO)c(C)n1` [Compound I-361] the Ki [1] was 2.4 nM and the Ki [2] was 18.3 nM.
`Cn1ncc(Br)c1-c1cc(Nc2ncc(C(F)(F)F)cc2F)c(Cl)cc1OCCO` [Compound I-399] showed a Ki [1] of 0.347 nM and a Ki [2] of 0.86 nM.
Molecule `Cn1ncc(Br)c1-c1nc(Nc2ccc(C#N)cc2F)ncc1OCCO` [Compound I-354] has a Ki [1] of 0.319 nM and a Ki [2] of 8.53 nM.
With `Cn1ncc(F)c1-c1cc(Nc2ncc(Cl)cc2F)c(F)cc1OCCO` [Compound I-171] the Ki [1] was 0.16 nM and the Ki [2] was 5.81 nM.
Molecule `Cn1ncc(Cl)c1-c1cc(Nc2ncc(F)cc2F)c(F)cc1OCCO` [Compound I-164] has a Ki [1] of 0.325 nM and a Ki [2] of 2.09 nM.
`COCc1nc(C)c(-c2cc(Nc3ncc(OC(C)(F)F)cc3Cl)ncc2OCCO)c(C)n1` [Compound I-266] showed a Ki [1] of 1.88 nM and a Ki [2] of 2.24 nM.
With `Cn1ncc(Br)c1-c1nc(Nc2ccc(Cl)cc2)ncc1OCCO` [Compound I-339] the Ki [1] was 0.217 nM and the Ki [2] was 2.52 nM.
Molecule `CCc1coc(-c2cnc(Nc3cc(-c4c(C)nc(COC)nc4C)c(OCCO)cn3)c(Cl)c2)n1` [Compound I-331] has a Ki [1] of 1.91 nM and a Ki [2] of 1.66 nM.
For `Cn1ncc(Br)c1-c1nc(Nc2ccc(C(F)(F)F)cn2)ncc1OCCO` [Compound I-337], the Ki [1] was 0.313 nM and the Ki [2] was 7.18 nM.
With `Cc1nc(C)c(-c2cc(Nc3ncc(-c4ccc(F)cc4)cc3F)ncc2OCCO)c(C)n1` [Compound I-316] the Ki [1] was 0.506 nM and the Ki [2] was 0.864 nM.
Molecule `Cn1ncc(Cl)c1-c1cc(Nc2ncc(OC(F)F)cc2F)ncc1OCCO` [Compound I-304] has a Ki [1] of 0.169 nM and a Ki [2] of 0.644 nM.
`Cn1ncc(F)c1-c1cc(Nc2ccc(C(F)(F)F)cn2)c(F)cc1OCCO` [Compound I-170] gave a Ki [1] of 0.212 nM and a Ki [2] of 5.45 nM.
With `Cn1ncc(Br)c1-c1cc(Nc2ncc(OC(F)(F)F)cn2)cnc1OCCO` [Compound I-269] the Ki [1] was 0.295 nM and the Ki [2] was 2.85 nM.
`Cc1cc(Cl)cnc1Nc1ccc(OCCO)c(-c2c(Br)cnn2C)c1` [Compound I-341] was tested, and the Ki [1] was 0.303 nM and the Ki [2] was 0.14 nM.
Work on `COCc1nc(C)c(-c2cc(Nc3ncc(-c4ccc(C#N)nc4)cc3Cl)ncc2OCCO)c(C)n1` [Compound I-244] yielded a Ki [1] of 3.75 nM and a Ki [2] of 2.87 nM.
Molecule `Cc1nc(C)c(-c2cc(Nc3ccc(-c4ccccc4)cn3)ncc2OCCO)c(C)n1` [Compound I-298] has a Ki [1] of 0.303 nM and a Ki [2] of 3.15 nM.
For `Cc1nc(C)c(-c2nc(Nc3ccc(OC(F)F)cc3)c(F)cc2OCCO)c(C)n1` [Compound I-268], the Ki [1] was 0.958 nM and the Ki [2] was 0.589 nM.
Molecule `O=C1NCc2c1cccc2-c1cc(Nc2ncc(C(F)(F)F)cc2F)ncc1OCCO` [Compound I-358] has a Ki [1] of 0.603 nM and a Ki [2] of 5.78 nM.
Work on `Cc1nc(COCC(F)F)nc(C)c1-c1cc(Nc2ncc(C(F)(F)F)cc2Cl)ncc1OCCO` [Compound I-375] yielded a Ki [1] of 1.27 nM and a Ki [2] of 1.57 nM.
For `COCc1nc(C)c(-c2cc(Nc3ncc(-c4ccc(F)cc4)cc3F)ncc2OCCO)c(C)n1` [Compound I-251], the Ki [1] was 0.325 nM and the Ki [2] was 0.393 nM.
For `Cc1cc(C(F)(F)F)cnc1Nc1cc(-c2c(C)cnn2C)c(OCCO)cn1` [Compound I-226], the Ki [1] was 0.268 nM and the Ki [2] was 1.91 nM.
`Cc1cnn(C)c1-c1nc(Nc2ccc(C(F)(F)F)cc2)c(F)cc1OCCO` [Compound I-283] gave a Ki [1] of 0.267 nM and a Ki [2] of 2.41 nM.
`COCc1nc(C)c(-c2nc(Nc3ccc(C4CCC4)cn3)c(F)cc2OCCO)c(C)n1` [Compound I-193] was tested, and the Ki [1] was 3.43 nM and the Ki [2] was 3.76 nM.
With `COCc1nc(C)c(-c2nc(Nc3ccc(C(F)(F)F)c(C#N)n3)c(F)cc2OCCO)c(C)n1` [Compound I-396] the Ki [1] was 9.96 nM and the Ki [2] was 17.2 nM.
With `COCc1nc(C)c(-c2nc(Nc3ccc(C(F)(F)F)c(OC)n3)c(F)cc2OCCO)c(C)n1` [Compound I-394] the Ki [1] was 1.34 nM and the Ki [2] was 2.16 nM.
Work on `COCc1nc(C)c(-c2cc(Nc3ncc(-c4ccc(F)cc4)cc3Cl)ncc2OCCO)c(C)n1` [Compound I-230] yielded a Ki [1] of 0.576 nM and a Ki [2] of 0.372 nM.
With `COCc1nc(C)c(-c2cc(Nc3ncc(C4CC(F)(F)C4)cc3Cl)ncc2OCCO)c(C)n1` [Compound I-195] the Ki [1] was 6.75 nM and the Ki [2] was 2.1 nM.
`COCc1nc(C)c(-c2cc(Nc3ncc(-n4cc(C(F)F)cn4)cc3Cl)ncc2OCCO)c(C)n1` [Compound I-327] was tested, and the Ki [1] was 2.4 nM and the Ki [2] was 2.69 nM.
Work on `Cn1ncc(Cl)c1-c1cc(Nc2ncc(OC(F)(F)F)cn2)ncc1OCCO` [Compound I-312] yielded a Ki [1] of 0.252 nM and a Ki [2] of 4.82 nM.
Work on `CCCc1nc(C)c(-c2cc(Nc3ncc(C(F)(F)F)cc3Cl)ncc2OCCO)c(C)n1` [Compound I-222] yielded a Ki [1] of 1.35 nM and a Ki [2] of 1.91 nM.
